Activity calls are given as the source filed them. The rule behind the calls is not given here.
Key:
[1] = Antiproliferative activity against ALK constitutively activated human NCI-H3122 cells at 10 nM after 72 hrs by SRB or CCK8 assay relative to control; assay type: functional; conditions: NCI-H3122, 72 h
[2] = molecular target: T1, ALK tyrosine kinase receptor (Homo sapiens, UniProt Q9UM73); experiment: Inhibition of recombinant wild type ALK (unknown origin) using poly (Glu,Tyr)4:1 as substrate after 60 mins by ELISA
Target sequence in this assay (Q9UM73 whole entry): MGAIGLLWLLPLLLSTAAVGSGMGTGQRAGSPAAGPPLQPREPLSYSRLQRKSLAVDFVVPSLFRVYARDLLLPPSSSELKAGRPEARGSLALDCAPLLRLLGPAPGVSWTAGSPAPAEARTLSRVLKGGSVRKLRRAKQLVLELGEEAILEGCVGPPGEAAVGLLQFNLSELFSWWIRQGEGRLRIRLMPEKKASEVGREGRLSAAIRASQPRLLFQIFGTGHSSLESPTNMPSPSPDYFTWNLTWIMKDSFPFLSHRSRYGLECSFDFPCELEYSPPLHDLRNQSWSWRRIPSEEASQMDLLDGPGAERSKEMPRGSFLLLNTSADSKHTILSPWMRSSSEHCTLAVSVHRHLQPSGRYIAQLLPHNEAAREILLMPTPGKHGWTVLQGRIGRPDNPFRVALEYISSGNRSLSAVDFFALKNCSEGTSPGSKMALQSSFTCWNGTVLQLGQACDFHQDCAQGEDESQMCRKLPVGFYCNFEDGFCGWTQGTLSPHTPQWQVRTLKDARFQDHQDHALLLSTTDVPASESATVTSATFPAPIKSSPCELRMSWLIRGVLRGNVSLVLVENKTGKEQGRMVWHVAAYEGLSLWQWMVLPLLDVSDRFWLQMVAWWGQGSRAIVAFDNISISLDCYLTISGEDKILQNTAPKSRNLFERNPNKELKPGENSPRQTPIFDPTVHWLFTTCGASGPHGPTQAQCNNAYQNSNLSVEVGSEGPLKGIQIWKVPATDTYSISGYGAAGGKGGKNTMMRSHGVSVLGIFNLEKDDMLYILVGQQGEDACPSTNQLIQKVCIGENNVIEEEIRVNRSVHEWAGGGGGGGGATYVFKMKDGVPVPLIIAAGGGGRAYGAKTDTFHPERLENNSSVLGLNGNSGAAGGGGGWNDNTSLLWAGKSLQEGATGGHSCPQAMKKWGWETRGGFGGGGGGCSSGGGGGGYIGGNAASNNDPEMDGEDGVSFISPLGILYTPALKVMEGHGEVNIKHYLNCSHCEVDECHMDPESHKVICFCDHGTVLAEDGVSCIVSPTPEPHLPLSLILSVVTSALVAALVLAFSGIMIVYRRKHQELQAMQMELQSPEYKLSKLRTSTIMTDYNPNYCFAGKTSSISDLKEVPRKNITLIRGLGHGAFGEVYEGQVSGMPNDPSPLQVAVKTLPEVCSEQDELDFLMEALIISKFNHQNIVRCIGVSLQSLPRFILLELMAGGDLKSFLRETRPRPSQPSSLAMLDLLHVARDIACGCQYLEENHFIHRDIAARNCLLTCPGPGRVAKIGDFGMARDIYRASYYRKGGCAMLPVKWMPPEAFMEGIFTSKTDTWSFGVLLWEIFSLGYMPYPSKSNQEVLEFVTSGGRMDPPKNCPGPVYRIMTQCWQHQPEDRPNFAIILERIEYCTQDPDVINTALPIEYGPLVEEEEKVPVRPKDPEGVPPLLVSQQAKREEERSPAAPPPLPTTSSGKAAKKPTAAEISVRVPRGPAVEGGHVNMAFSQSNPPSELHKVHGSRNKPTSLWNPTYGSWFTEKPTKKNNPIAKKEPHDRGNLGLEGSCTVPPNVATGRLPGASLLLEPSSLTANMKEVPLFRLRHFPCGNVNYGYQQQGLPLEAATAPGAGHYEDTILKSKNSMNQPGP

[3] = Antiproliferative activity against ALK constitutively activated human KARPAS299 cells after 72 hrs by SRB or CCK8 assay; conditions: KARPAS-299, 72 h
[4] = Antiproliferative activity against ALK constitutively activated human SU-DHL1 cells after 72 hrs by SRB or CCK8 assay; conditions: SU-DHL-1, 72 h
[5] = Antiproliferative activity against ALK constitutively activated human NCI-H3122 cells after 72 hrs by SRB or CCK8 assay; conditions: NCI-H3122, 72 h
[6] = Antitumor activity against human KARPAS299 cells xenografted in nude mouse assessed as tumor growth inhibition at 50 mg/kg, po qd administered for 14 days measured twice per week during compound dosing relative to vehicle-treated control; assay type: functional; conditions: KARPAS-299, po, 336 h, read-out: TGI
[7] = Antitumor activity against human KARPAS299 cells xenografted in nude mouse assessed as tumor growth inhibition at 10 mg/kg, po qd administered for 14 days measured twice per week during compound dosing relative to vehicle-treated control; assay type: functional; conditions: KARPAS-299, po, 336 h, read-out: TGI
[8] = test system: Mus musculus; experiment: Toxicity in nude mouse xenografted with human KARPAS299 cells assessed as body weight loss at 10 to 50 mg/kg, po qd administered for 14 days; assay type: organism-based, KARPAS-299; conditions: in vivo, 336 h
[9] = Antitumor activity against human KARPAS299 cells xenografted in nude mouse assessed as tumor growth inhibition at 20 mg/kg, po qd administered for 14 days measured twice per week during compound dosing relative to vehicle-treated control; assay type: functional; conditions: KARPAS-299, po, 336 h, read-out: TGI
[10] = molecular target: Voltage-gated inwardly rectifying potassium channel KCNH2 (Homo sapiens, UniProt Q12809); experiment: Inhibition of human ERG
[11] = molecular target: T1, ALK tyrosine kinase receptor; experiment: Inhibition of ALK in human NCI-H3122 cells assessed as decrease in Akt phosphorylation after 1 hr by Western blot method; assay type: cell-based
Target sequence in this assay (Q9UM73 19-1620 limits assumed): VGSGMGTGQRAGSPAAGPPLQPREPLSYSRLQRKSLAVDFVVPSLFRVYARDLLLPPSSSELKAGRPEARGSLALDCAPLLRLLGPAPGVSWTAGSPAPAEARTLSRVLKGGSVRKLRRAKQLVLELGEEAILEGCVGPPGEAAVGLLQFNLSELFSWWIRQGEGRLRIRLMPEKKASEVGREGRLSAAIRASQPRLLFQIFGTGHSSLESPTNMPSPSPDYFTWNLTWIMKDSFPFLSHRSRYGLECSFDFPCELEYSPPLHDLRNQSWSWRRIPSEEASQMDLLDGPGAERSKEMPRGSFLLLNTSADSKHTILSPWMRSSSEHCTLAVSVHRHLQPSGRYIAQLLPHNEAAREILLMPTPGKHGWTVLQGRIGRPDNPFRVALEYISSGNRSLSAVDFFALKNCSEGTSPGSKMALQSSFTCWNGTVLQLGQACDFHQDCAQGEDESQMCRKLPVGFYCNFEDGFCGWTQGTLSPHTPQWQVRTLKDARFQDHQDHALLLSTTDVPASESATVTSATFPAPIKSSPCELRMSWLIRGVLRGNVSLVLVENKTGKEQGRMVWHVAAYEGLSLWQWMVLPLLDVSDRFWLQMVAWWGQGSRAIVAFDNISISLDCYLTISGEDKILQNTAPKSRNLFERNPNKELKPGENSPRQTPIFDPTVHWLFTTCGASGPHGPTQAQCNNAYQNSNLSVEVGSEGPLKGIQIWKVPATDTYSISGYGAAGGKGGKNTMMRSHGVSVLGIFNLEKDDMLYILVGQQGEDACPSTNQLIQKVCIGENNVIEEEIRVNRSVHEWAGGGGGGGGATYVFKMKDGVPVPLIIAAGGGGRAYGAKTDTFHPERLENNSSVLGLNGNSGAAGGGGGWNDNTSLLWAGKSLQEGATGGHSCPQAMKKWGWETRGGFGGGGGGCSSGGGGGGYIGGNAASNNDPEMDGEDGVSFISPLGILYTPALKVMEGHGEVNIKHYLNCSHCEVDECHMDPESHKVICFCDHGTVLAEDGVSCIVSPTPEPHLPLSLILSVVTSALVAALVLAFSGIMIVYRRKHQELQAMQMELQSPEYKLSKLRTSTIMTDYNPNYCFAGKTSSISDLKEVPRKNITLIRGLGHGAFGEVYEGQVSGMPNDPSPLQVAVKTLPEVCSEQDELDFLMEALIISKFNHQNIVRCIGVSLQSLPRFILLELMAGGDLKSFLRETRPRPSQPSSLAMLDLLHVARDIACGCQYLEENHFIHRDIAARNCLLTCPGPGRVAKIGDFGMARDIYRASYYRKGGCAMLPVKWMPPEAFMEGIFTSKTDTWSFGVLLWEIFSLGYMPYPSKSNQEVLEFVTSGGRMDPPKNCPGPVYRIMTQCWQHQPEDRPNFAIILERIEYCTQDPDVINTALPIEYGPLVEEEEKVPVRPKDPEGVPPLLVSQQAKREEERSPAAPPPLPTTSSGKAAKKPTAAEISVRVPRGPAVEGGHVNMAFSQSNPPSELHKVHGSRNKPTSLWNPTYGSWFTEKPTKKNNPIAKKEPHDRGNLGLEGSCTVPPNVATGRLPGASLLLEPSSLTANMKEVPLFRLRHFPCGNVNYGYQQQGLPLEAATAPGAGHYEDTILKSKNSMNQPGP

[12] = molecular target: T1, ALK tyrosine kinase receptor; experiment: Inhibition of ALK phosphorylation in human NCI-H3122 cells after 1 hr by Western blot method; assay type: cell-based
Target sequence in this assay (Q9UM73 19-1620 limits assumed): as above

[13] = molecular target: T1, ALK tyrosine kinase receptor; experiment: Inhibition of ALK in human NCI-H3122 cells assessed as decrease in STAT3 phosphorylation after 1 hr by Western blot method; assay type: cell-based
Target sequence in this assay (Q9UM73 19-1620 limits assumed): as above

[14] = molecular target: T1, ALK tyrosine kinase receptor; experiment: Inhibition of ALK in human NCI-H3122 cells assessed as decrease in ERK phosphorylation after 1 hr by Western blot method; assay type: cell-based
Target sequence in this assay (Q9UM73 19-1620 limits assumed): as above

[15] = test system: KARPAS-299; experiment: Antitumor activity against human KARPAS299 cells xenografted in nude mouse assessed as tumor regression at 10 to 50 mg/kg, po qd administered for 14 days measured post last dose; assay type: functional, organism-based
[16] = molecular target: Epidermal growth factor receptor (Homo sapiens, UniProt P00533); experiment: Inhibition of recombinant EGFR (unknown origin) using poly (Glu,Tyr)4:1 as substrate after 60 mins by ELISA
[17] = molecular target: Receptor tyrosine-protein kinase erbB-2 (Homo sapiens, UniProt P04626); experiment: Inhibition of recombinant ErbB2 (unknown origin) using poly (Glu,Tyr)4:1 as substrate after 60 mins by ELISA
[18] = Half life in Sprague-Dawley rat at 5 mg/kg, iv; assay type: ADME, organism-based; conditions: in vivo
[19] = Oral bioavailability in Sprague-Dawley rat at 10 mg/kg; assay type: ADME, organism-based; conditions: in vivo
[20] = Cmax in Sprague-Dawley rat at 10 mg/kg, po; assay type: ADME, organism-based; set-up: dose 10 mg/kg, route oral; conditions: in vivo
[21] = molecular target: Platelet-derived growth factor receptor beta (Homo sapiens, UniProt P09619); experiment: Inhibition of recombinant PDGFR-beta (unknown origin) using poly (Glu,Tyr)4:1 as substrate after 60 mins by ELISA
[22] = molecular target: Tyrosine-protein kinase ABL1 (Homo sapiens, UniProt P00519); experiment: Inhibition of recombinant ABL (unknown origin) using poly (Glu,Tyr)4:1 as substrate after 60 mins by ELISA
[23] = molecular target: Insulin-like growth factor 1 receptor (Homo sapiens, UniProt P08069); experiment: Inhibition of recombinant IGF1R (unknown origin) using poly (Glu,Tyr)4:1 as substrate after 60 mins by ELISA
[24] = Clearance in Sprague-Dawley rat at 5 mg/kg, iv; assay type: ADME, organism-based; conditions: in vivo
[25] = Antiproliferative activity against ALK constitutively activated human NCI-H3122 cells at 50 nM after 72 hrs by SRB or CCK8 assay relative to control; assay type: functional; conditions: NCI-H3122, 72 h
[26] = molecular target: Mast/stem cell growth factor receptor Kit (Homo sapiens, UniProt P10721); experiment: Inhibition of recombinant c-Kit (unknown origin) using poly (Glu,Tyr)4:1 as substrate after 60 mins by ELISA
[27] = molecular target: Vascular endothelial growth factor receptor 2 (Homo sapiens, UniProt P35968); experiment: Inhibition of recombinant KDR (unknown origin) using poly (Glu,Tyr)4:1 as substrate after 60 mins by ELISA
[28] = Volume of distribution in Sprague-Dawley rat at 5 mg/kg, iv; assay type: ADME, organism-based; conditions: in vivo
[29] = molecular target: ALK tyrosine kinase receptor (Homo sapiens, UniProt Q9UM73, L1196M); experiment: Inhibition of recombinant ALK L1196M mutant (unknown origin) using poly (Glu,Tyr)4:1 as substrate after 60 mins by ELISA
[30] = molecular target: Ephrin type-A receptor 2 (Homo sapiens, UniProt P29317); experiment: Inhibition of recombinant EPHA2 (unknown origin) using poly (Glu,Tyr)4:1 as substrate after 60 mins by ELISA
[31] = AUC (0 to infinity) in Sprague-Dawley rat at 10 mg/kg, po; assay type: ADME, organism-based; set-up: dose 10 mg/kg, time infinity, route oral; conditions: in vivo
[32] = molecular target: Platelet-derived growth factor receptor alpha (Homo sapiens, UniProt P16234); experiment: Inhibition of recombinant PDGFR-alpha (unknown origin) using poly (Glu,Tyr)4:1 as substrate after 60 mins by ELISA
[33] = molecular target: Receptor tyrosine-protein kinase erbB-4 (Homo sapiens, UniProt Q15303); experiment: Inhibition of recombinant ErbB4 (unknown origin) using poly (Glu,Tyr)4:1 as substrate after 60 mins by ELISA
[34] = AUC (0 to infinity) in Sprague-Dawley rat at 5 mg/kg, iv; assay type: ADME, organism-based; set-up: dose 5 mg/kg, time infinity, route intravenous; conditions: in vivo
[35] = Tmax in Sprague-Dawley rat at 10 mg/kg, po; assay type: ADME, organism-based; conditions: in vivo
[36] = molecular target: Proto-oncogene tyrosine-protein kinase Src (Homo sapiens, UniProt P12931); experiment: Inhibition of recombinant c-Src (unknown origin) using poly (Glu,Tyr)4:1 as substrate after 60 mins by ELISA
[37] = Drug level in rat liver microsomes treated with 9-Ethyl-8-(4-((4-hydroxytetrahydro-2H-pyran-4-yl)methyl)piperazin-1-yl)-6,6-dimethyl-11-oxo-6,11-dihydro-5H-benzo[b]carbazole-3-carbonitrile after 3 hrs; assay type: ADME

Voltage-gated inwardly rectifying potassium channel KCNH2, sequence (Q12809 whole entry): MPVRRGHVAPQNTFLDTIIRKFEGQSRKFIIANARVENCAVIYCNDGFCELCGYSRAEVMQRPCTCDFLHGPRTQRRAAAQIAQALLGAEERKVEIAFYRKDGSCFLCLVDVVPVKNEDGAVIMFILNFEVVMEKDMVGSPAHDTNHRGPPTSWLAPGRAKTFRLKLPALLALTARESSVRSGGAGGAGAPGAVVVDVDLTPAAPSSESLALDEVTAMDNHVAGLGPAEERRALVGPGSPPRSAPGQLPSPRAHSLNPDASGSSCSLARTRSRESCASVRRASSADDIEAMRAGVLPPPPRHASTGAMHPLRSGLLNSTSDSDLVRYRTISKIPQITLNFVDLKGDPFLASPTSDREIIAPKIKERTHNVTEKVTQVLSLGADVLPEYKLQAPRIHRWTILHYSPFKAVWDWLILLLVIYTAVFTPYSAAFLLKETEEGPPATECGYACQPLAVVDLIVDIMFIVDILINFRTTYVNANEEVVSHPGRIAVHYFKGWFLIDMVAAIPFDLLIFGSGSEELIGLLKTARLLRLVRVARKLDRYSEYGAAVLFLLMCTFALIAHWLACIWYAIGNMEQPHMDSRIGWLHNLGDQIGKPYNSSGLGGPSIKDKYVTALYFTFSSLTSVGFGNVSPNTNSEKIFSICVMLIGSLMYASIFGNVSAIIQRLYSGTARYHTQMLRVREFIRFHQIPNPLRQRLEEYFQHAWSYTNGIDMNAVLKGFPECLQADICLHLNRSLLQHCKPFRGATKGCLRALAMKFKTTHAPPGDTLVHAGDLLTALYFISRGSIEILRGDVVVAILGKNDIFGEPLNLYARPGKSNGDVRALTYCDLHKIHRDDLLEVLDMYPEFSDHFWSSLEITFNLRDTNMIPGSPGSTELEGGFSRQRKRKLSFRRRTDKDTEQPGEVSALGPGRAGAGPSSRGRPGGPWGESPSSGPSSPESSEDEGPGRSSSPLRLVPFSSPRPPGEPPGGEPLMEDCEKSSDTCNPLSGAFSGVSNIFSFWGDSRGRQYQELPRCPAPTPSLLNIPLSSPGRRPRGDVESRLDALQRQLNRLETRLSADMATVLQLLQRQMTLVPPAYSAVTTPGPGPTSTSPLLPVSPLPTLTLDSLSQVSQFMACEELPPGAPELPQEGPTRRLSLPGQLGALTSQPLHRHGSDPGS
Proto-oncogene tyrosine-protein kinase Src, sequence (P12931 2-536 limits assumed): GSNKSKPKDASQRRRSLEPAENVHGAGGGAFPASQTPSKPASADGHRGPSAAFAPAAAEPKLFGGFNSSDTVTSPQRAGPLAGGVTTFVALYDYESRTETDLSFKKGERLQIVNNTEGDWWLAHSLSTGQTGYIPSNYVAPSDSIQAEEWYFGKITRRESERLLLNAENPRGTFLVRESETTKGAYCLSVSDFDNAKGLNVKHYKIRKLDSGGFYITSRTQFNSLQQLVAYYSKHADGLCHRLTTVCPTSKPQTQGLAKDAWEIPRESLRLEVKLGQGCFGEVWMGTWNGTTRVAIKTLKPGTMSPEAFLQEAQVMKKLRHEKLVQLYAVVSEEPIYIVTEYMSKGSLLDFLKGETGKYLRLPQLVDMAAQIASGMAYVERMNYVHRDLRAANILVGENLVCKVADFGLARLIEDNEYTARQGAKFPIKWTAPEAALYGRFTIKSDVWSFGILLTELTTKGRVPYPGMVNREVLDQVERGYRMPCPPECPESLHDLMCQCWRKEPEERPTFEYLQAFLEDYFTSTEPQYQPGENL
ALK tyrosine kinase receptor (Homo sapiens, UniProt Q9UM73, L1196M), sequence (Q9UM73 19-1620 L1196M limits assumed): as the sequence (Q9UM73 19-1620 limits assumed) above, with L1178M counted along it

SMILES: CCc1cc2c(cc1N1CCN(CC3(O)CC(C)OC(C)C3)CC1)C(C)(C)c1[nH]c3cc(C#N)ccc3c1C2=O (stereo not given)
- inhibition at 0.01 µM [1]: 40%
- IC50 [2]: 2.4 nM

SMILES: C[C@@H](Oc1cc(-c2cnn(C3CCNCC3)c2)cnc1N)c1c(Cl)ccc(F)c1Cl [CRIZOTINIB]
- IC50 [3]: 105 nM
- IC50 [4]: 92.3 nM
- IC50 [5]: 101 nM
- inhibition in vivo at 50 mg/kg [6]: 109%

SMILES: CCc1cc2c(cc1N1CCN(CC3(O)CCOCC3)CC1)C(C)(C)c1[nH]c3cc(C#N)ccc3c1C2=O.Cl
- inhibition in vivo at 10 mg/kg [7]: 110%
- Activity [8]: Non-Toxic
- inhibition in vivo at 50 mg/kg [6]: 110%
- inhibition in vivo at 20 mg/kg [9]: > 100%

SMILES: CC1(C)c2cc(C3CCN(CC4(O)CCOCC4)CC3)ccc2C(=O)c2c1[nH]c1cc(C#N)ccc21
- IC50 [10]: > 12300 nM

SMILES: CCc1cc2c(cc1N1CCN(CC3(O)CCOCC3)CC1)C(C)(C)c1[nH]c3cc(C#N)ccc3c1C2=O [listing 1 of 2 here]
- inhibition [11]: Dose-dependent effect
- inhibition [12]: Dose-dependent effect
- inhibition [13]: Dose-dependent effect
- inhibition [14]: Dose-dependent effect
- Activity [15]: Active

SMILES: CC1(C)c2cc(C3CCN(CC4CCOCC4)CC3)ccc2C(=O)c2c1[nH]c1cc(C#N)ccc21
- IC50 [10]: 2650 nM

SMILES: CCc1cc2c(cc1N1CCN(CC3(O)CCOCC3)CC1)C(C)(C)c1[nH]c3cc(C#N)ccc3c1C2=O [listing 2 of 2 here]
- IC50 [16]: > 1000 nM
- IC50 [17]: > 1000 nM
- half-life [18]: 5.5 h
- bioavailability [19]: 105%
- Cmax [20]: 867 ng/mL
- IC50 [21]: > 1000 nM
- IC50 [3]: 22.6 nM
- IC50 [22]: > 1000 nM
- IC50 [23]: > 1000 nM
- clearance [24]: 12.2 mL/min/kg
- IC50 [4]: 16.7 nM
- inhibition at 0.05 µM [25]: 80%
- IC50 [5]: 24.4 nM
- IC50 [26]: > 1000 nM
- IC50 [27]: > 1000 nM
- Vd [28]: 5 L/kg
- IC50 [29]: 4.2 nM
- IC50 [10]: 30000 to 33400 nM
- IC50 [30]: > 1000 nM
- AUC(0-inf) [31]: 11700 ng·h/mL
- IC50 [32]: > 1000 nM
- IC50 [33]: > 1000 nM
- AUC(0-inf) [34]: 6640 ng·h/mL
- Tmax [35]: 4 h
- IC50 [2]: 1.5 nM
- IC50 [36]: > 1000 nM

SMILES: CCc1cc2c(cc1N1CCN(CC3(O)CCNCC3)CC1)C(C)(C)c1[nH]c3cc(C#N)ccc3c1C2=O
- inhibition at 0.05 µM [25]: 5%
- IC50 [2]: 1.4 nM

SMILES: CCc1cc2c(cc1N1CCN(CC(O)(CCC(=O)O)CC(=O)O)CC1)C(C)(C)c1[nH]c3cc(C#N)ccc3c1C2=O (stereo not given)
- Drug metabolism [37]: Metabolite_Detected
- inhibition at 0.05 µM [25]: 3%
- IC50 [2]: 17.1 nM

SMILES: CCc1cc2c(cc1N1CCN(CC3(O)CCCCC3)CC1)C(C)(C)c1[nH]c3cc(C#N)ccc3c1C2=O
- inhibition at 0.05 µM [25]: 40%
- IC50 [2]: 7 nM
